In US20030027720A1, “Synergistic fungicidal composition comprising a compound analogous to strobilurin” (priority 1995, published 2003):

Legend:
Alternaria brassicae = assay: In vivo test, alternaria disease of radish, preventive treatment 24 hours before infection (Tammes isobole); conditions: radish seedlings, spray 24 h before infection, reading 6 days after infection
Method: In vivo test of the combination of ICIA5504 with iprodione with respect to alternaria disease of radish (Alternaria brassicae) by preventive treatment 24 hours before infection. A suspension comprising the compounds A and B in a liquid mixture composed of a surface-active agent (oleate of polyoxyethylenated derivative of sorbitan) and water is prepared. The component B is iprodione; the A/B ratio is 0.25, 0.5, 1, 2 or 4. Radish seedlings (variety Pernot), are grown in small pots. When these seedlings are 10-12 days old (cotyledon, 1st leaf stage), they are treated by spraying with the above suspension. […] After 24 hours, each seedling is infected by spraying with an aqueous suspension of spores of Alternaria brassica, which suspension is obtained from an in vitro culture of the fungus. These spores are suspended at a concentration of 40,000 units per cm^3 of inoculum. Infection is carried out by spraying the inoculum at the top surface of the leaves. The infected seedlings are then incubated for six days at 18-20° C. at 90-100% relative humidity under natural light. Reading is carried out 6 days after infection, in comparison with the control seedlings. […]

Pyrenophora teres = assay: In vivo test, helminthosporium disease of barley, preventive treatment 7 days before infection (Colby); conditions: graded 10 days after infection
Method: In vivo test of the combination of ICIA5504 with iprodione with respect to helminthosporium disease of barley by preventive treatment 7 days before infection.
The fungicides are used at the following doses:
The young barley plants (var. Express) which are 12 days old (first leaf developed stage) are treated with the experimental fungicides at the doses indicated above in a slurry volume of 250 l/ha (3 repeats/dose). Seven days after the treatment, the young barley plants are infected with a suspension of Pyrenophora teres spores (10,000 spores/ml). The young plants are incubated for 48 hours at 20° C., 100% relative humidity (RH). Next, the plants are transferred to a greenhouse at 20° C., 70-80% RH under natural light. The grading of the disease is carried out ten days after infection by estimating the leaf surface area contaminated on the first leaf (10 young plants/pot).
By comparing with the control (non-treated-contaminated) a percentage efficacy is calculated. The synergy is then quantified by using the Colby model.

Structure (SMILES) | dose of A alone necessary for the destruction of 80% of the parasite (Alternaria brassicae) | Observed efficacy (Pyrenophora teres; ICIA5504 1.5 g/ha alone) [%] | Observed efficacy (Pyrenophora teres; ICIA5504 3.1 g/ha alone) [%] | Observed efficacy (Pyrenophora teres; ICIA5504 6.2 g/ha alone) [%] | Observed efficacy (Pyrenophora teres; ICIA5504 12.5 g/ha alone) [%] | Observed efficacy (Pyrenophora teres; ICIA5504 25 g/ha alone) [%] | Observed efficacy (Pyrenophora teres; ICIA5504 50 g/ha alone) [%] | Observed efficacy (Pyrenophora teres; ICIA5504 100 g/ha alone) [%] | Observed efficacy (Pyrenophora teres; ICIA5504 200 g/ha alone) [%] | Observed efficacy (Pyrenophora teres; iprodione 12.5 g/ha alone) [%] | Observed efficacy (Pyrenophora teres; iprodione 25 g/ha alone) [%] | Observed efficacy (Pyrenophora teres; iprodione 50 g/ha alone) [%] | Observed efficacy (Pyrenophora teres; iprodione 100 g/ha alone) [%] | Observed efficacy (Pyrenophora teres; iprodione 200 g/ha alone) [%] | Observed efficacy (Pyrenophora teres; iprodione 400 g/ha alone) [%] | Observed efficacy (Pyrenophora teres; iprodione 800 g/ha alone) [%]
CO/C=C(/C(=O)OC)c1ccccc1Oc1cc(Oc2ccccc2C#N)ncn1 [ICIA5504, methyl (E)-2-{2-[6-(2-cyanophenoxy)pyrimidin-4-yloxy]phenyl}-3-methoxyacrylate] | 115 ppm (mg/l) | 0 | 17.54 | 34.21 | 59.21 | 76.75 | 83.86 | 81.67 | 92.72 |  |  |  |  |  |  | 
CC(C)NC(=O)N1CC(=O)N(c2cc(Cl)cc(Cl)c2)C1=O [iprodione] |  |  |  |  |  |  |  |  |  | 15.79 | 7.02 | 37.72 | 35.09 | 47.37 | 50.88 | 59.65
